This note sets out measurements from CN116139126A, “表没食子儿茶素-3-没食子酸酯在制备嗜水气单胞菌的群体感应抑制剂中的应用” (Yueyang Yumeikang Bio Tech Co ltd, priority 2023, dated 2023).

The test system of this assay is hemolysin of Aeromonas hydrophila (嗜水气单胞菌 溶血素). Kind of assay: Quantitative beta-hemolysin assay (5% rabbit red blood cells). In kind it is cell-based, Aeromonas hydrophila AH08.

A word on the inhibition: it is how much of the control response was suppressed. `O=C(O[C@@H]1Cc2c(O)cc(O)cc2O[C@@H]1c1cc(O)c(O)c(O)c1)c1cc(O)c(O)c(O)c1` [EGCG, 表没食子儿茶素-3-没食子酸酯]: the inhibition at 256 µg/mL (Aeromonas hydrophila, Erythrocyte, 256 μg/ml, compared with blank control, read-out: inhibition rate of hemolysin) turned out to be 28.2%. In addition, the “inhibition of hemolytic activity (in words)” value (high concentration EGCG) is reported as “显著抑制”.
